Data taken from US20130316958A1 (University of Southern California, priority 2010, published 2013).

Key:
[1] = system: HCT116, HaCat, and MEF cells; assay: GFP-LC3 autophagy with KSHV vFLIP in multiple cell types; assay type: cell-based; settings: 2 μM rapamycin 3 hr
Method: During autophagy, an LC3 precursor (LC3-I) undergoes cleavage and lipidation to yield its processed form (LC3-II) (Mizushima et al. (2008) Nature 451:1069-1075). Immunoblotting was performed with an antibody against LC3 to further measure autophagic activity. NIH3T3-Vector, NIH3T3-KSHV-vFLIP, and NIH3T3-MCV-159L cells were treated with Hank's solution for 4 hr. Polypeptides were resolved by SDS-polyacrylamide gel electrophoresis (PAGE) and transferred to a PVDF membrane (Bio-Rad). […] The proteins were visualized by a chemiluminescence reagent (Pierce) and detected by a Fuji Phosphor Imager. A large portion of LC3-I was processed to LC3-II in NIH3T3-vector cells under starvation conditions, while little or no processed LC3-II was detected in NIH3T3-KSHV-vFLIP, NIH3T3-MCV-159L, NIH3T3-HVS-vFLIP, and NIH3T3-cFLIPs cells. Finally, the ability of FLIP to block autophagy in multiple cell types was evaluated. At 12-16 hr post-transfection with GFP-LC3, HCT116, HaCat, and MEF cells containing vector or KSHV vFLIP were treated with 2 μM rapamycin for 3 hr. Subsequently, GFP-LC3 was detected using an inverted fluorescence microscope and the autophagy levels quantified as means (±SD) of the results from three independent experiments.

Atg3 = biological target: T1, Atg3 (Homo sapiens, UniProt Q9NT62); assay: Co-immunoprecipitation of FLIP with Atg3 in HEK293T cells; assay type: binding; settings: endogenously and exogenously expressed Atg3
T1 construct: GFP (alternative construct GFP-Atg3, not on the same molecule as GST); expressed in transfected cells; host or cells: HEK293T
T1 sequence (Q9NT62 whole entry): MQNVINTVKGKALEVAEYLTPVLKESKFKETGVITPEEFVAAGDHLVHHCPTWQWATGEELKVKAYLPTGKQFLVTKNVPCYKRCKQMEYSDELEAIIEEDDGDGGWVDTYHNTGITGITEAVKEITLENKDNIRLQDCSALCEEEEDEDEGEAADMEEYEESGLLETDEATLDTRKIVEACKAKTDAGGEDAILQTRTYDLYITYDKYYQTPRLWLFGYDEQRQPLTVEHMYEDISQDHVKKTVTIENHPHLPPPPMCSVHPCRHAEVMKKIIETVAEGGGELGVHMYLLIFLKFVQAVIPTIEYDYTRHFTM
Method: The ability of FLIP to bind to Atg3 was evaluated by co-immunoprecipitation assay. HEK293T cells were transfected with Flag-vFLIP and/or GFP-Atg3 or Flag-vFLIP and/or GST-Atg3, and at 48 hr post-transfection, cells were harvested and lysed in an NP40 buffer supplemented with complete protease inhibitor cocktail (Roche). After pre-clearing with protein A/G agarose beads for 1 hr at 4° C., whole-cell lysates were used for immunoprecipitation with αFlag, αGFP, or GST. Generally, 1-4 μg of the antibody was added to 1 ml of the cell lysate and incubated at 4° C. for 8 to 12 hr. The immunoprecipitates were then washed extensively with a lysis buffer and eluted by boiling them with an SDS loading buffer for 5 min. Following immunoprecipitation, samples were treated to immunoblot using αAtg3 (1:500) (Novus).

[2] = system: human Atg3 deletion mutants; assay: GST pulldown with Atg3 deletion mutants; assay type: binding; settings: GST-Atg3, N-terminal and C-terminal regions
From the text: The overall structure of yeast Atg3 has a unique hammer-like shape with the N-terminal and C-terminal regions discretely responsible for Atg7 and Atg8 (equivalent to mammalian LC3) binding, respectively. (Yamada et al. (2007) J. Biol. Chem. 282:8036-8043). Based on the structure of yeast Atg3, human Atg3 deletion mutants fused with a GST mammalian expression vector were constructed: GST-Atg31-93, GST-Atg3193-268, GST-Atg3268-315, and GST-Atg3193-315-GST-tagged hATG3 and hATG3 mutant genes were cloned into a pcDNA5/FRT/TO derivative encoding an N-terminal GST epitope tag between the BamHI and NotI sites. GST pulldown with Flag-KSHV vFLIP, Flag-cFLIPs, Flag-MCV 159L, or Flag-HVS vFLIP along with GST-Atg3, GST-Atg3 N-terminal region (Nt), or GST-Atg3 C-terminal region (Ct) was performed as described above and was followed by immunoblotting with aFlag or aGST.

Atg3-LC3 interaction = biological target: T2, Atg3-LC3 interaction (Homo sapiens, UniProt Q9NT62); assay: Competition of vFLIP with LC3 for Atg3 binding (GST pulldown); settings: increasing amount of Flag-vFLIP, HEK293T
T2 construct: expressed in transfected cells; host or cells: HEK293T
T2 sequence (Q9NT62 whole entry): as above
Method: Due to identical Atg3 binding patterns seen in vFLIP and LC3, the ability of vFLIP to directly compete with LC3 for Atg3 binding was tested. HEK293T cells were transfected with GST-Atg3 and GFP-LC3 along with increasing amount of Flag-vFLIP. At 48 hr post-transfection, GST pulldown was performed as described above, followed by immunoblotting with αGFP or αFlag.

NF-κB = NF-κB luciferase reporter assay; assay type: cell-based; settings: NIH3T3 cells, 48 hr post-transfection
From the text: To determine the effects of the interactions of vFLIP with FADD, IKKαβγ, and 14-3-3σ on anti-autophagy activity, NIH3T3 cells stably expressing various vFLIP mutants were constructed: m14-3-3σ, which lacks 14-3-3σ-binding; mTRAF2, which lacks TRAF2-binding (Guasparri et al. (2006) EMBO Rep. 7:114-119); 67AAA and 58AAA, which have reduced NF-κB activation (Matta and Chaudhary (2004) Proc. Natl. Acad. Sci. USA 101:9399-9404); and mFADD, which lacks FADD-binding (Yang et al. (2005) Mol. Cell. 20:939-949). These cells were treated with either cyclohexamide (CHX) alone or CHX and TNF-α for 12 hr or with 2 μM rapamycin for 3 hr. Propidium iodide (PI) staining and flow cytometry analysis were performed to determine apoptosis levels. Alternatively, NIH3T3 cells containing vector, KSHV vFLIP, or its mutants were transfected with an NF-κB-luciferase reporter construct and a control renilla luciferase plasmid, pRL-SV40 (Promega). At 48 hr post-transfection, luciferase activity was measured with a luminometer using a dual luciferase assay kit (Promega) and normalized with renilla luciferase activity to determine transfection efficiency. GFP-LC3 puncta were detected using an inverted fluorescence microscope and the autophagy levels quantified as means (±SD) of the results from three independent experiments.

KSHV vFLIP: viral FLICE-like inhibitor protein of Kaposi's sarcoma-associated herpesvirus, expressed in cells
block of autophagy in multiple cell types [1]: efficiently blocked autophagy in a number of cell types | interaction with Atg3 (co-immunoprecipitation) (Atg3): strongly interacted with endogenously and exogenously expressed Atg3, even in the presence of a 1M NaCl salt concentration | Atg3 region bound (GST pulldown) [2]: independently bound either the aa193-268 or aa268-315 region of the C-terminal of Atg3 | effect on Atg3-LC3 interaction (Atg3-LC3 interaction): marked decrease of Atg3-LC3 interaction | NF-κB activation (NF-κB): carried out NF-κB activation
